Reference: the supplement of paper PMC5908809

Key:
[1] = tested on: normal NK cells expanded with K562-aAPC; test: percent inhibition of viability; higher = more inhibition; conditions: 72 h, IL-2 2.5 ng/mL
Experimental: (§1)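 Drug sensitivity and resistance testing on K562-aAPC-expanded normal NK cells: 5 concentrations (10-fold steps over a 10,000-fold range), 72 h at 37 °C, viability by CellTiter-Glo normalised to DMSO and benzethonium chloride controls; DSS from the fitted curve.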

[2] = tested on: normal NK cells expanded with K562-aAPC; test: drug sensitivity score (DSS) (DSS units); higher = more sensitive; extreme values may be limits of the assay; conditions: 72 h; IL-2 2.5 ng/mL
Experimental: as §1

NK-YS (IL-2 2.5 ng/mL) [3] = test: percent inhibition of viability; higher = more inhibition; conditions: 72 h
KHYG-1 (IL-2 2.5 ng/mL) [4] = test: as above; conditions: 72 h
KAI3 (IL-2 2.5 ng/mL) [5] = test: as above; conditions: 72 h
SNK-6 (IL-2 2.5 ng/mL) [6] = test: as above; conditions: 72 h
[7] = tested on: normal primary NK cells, pool 1 (3 donors), resting (IL-2 0 ng/mL); test: as above; conditions: 72 h
NKL (IL-2 2.5 ng/mL) [8] = test: as above; conditions: 72 h
[9] = tested on: normal primary NK cells, pool 3 (3 donors) (IL-2 2.5 ng/mL); test: as above; conditions: 72 h
IMC-1 (IL-2 20 ng/mL) [10] = test: as above; conditions: 72 h
[11] = tested on: normal primary NK cells, pool 2 (3 donors) (IL-2 2.5 ng/mL); test: as above; conditions: 72 h
DERL-7 (IL-2 2.5 ng/mL) [12] = test: as above; conditions: 72 h
YT (IL-2 2.5 ng/mL) [13] = test: as above; conditions: 72 h
NK-92 (IL-2 2.5 ng/mL) [14] = test: as above; conditions: 72 h
[15] = tested on: normal primary NK cells, pool 1 (3 donors) (IL-2 2.5 ng/mL); test: as above; conditions: 72 h
NK-YS (IL-2 2.5 ng/mL) [16] = test: drug sensitivity score (DSS) (DSS units); higher = more sensitive; extreme values may be limits of the assay; conditions: 72 h
KHYG-1 (IL-2 2.5 ng/mL) [17] = test: as above; conditions: 72 h
KAI3 (IL-2 2.5 ng/mL) [18] = test: as above; conditions: 72 h
SNK-6 (IL-2 2.5 ng/mL) [19] = test: as above; conditions: 72 h
[20] = tested on: normal primary NK cells, pool 1 (3 donors), resting (IL-2 0 ng/mL); test: as above; conditions: 72 h
NKL (IL-2 2.5 ng/mL) [21] = test: as above; conditions: 72 h
[22] = tested on: normal primary NK cells, pool 3 (3 donors) (IL-2 2.5 ng/mL); test: as above; conditions: 72 h
IMC-1 (IL-2 20 ng/mL) [23] = test: as above; conditions: 72 h
[24] = tested on: normal primary NK cells, pool 2 (3 donors) (IL-2 2.5 ng/mL); test: as above; conditions: 72 h
DERL-7 (IL-2 2.5 ng/mL) [25] = test: as above; conditions: 72 h
YT (IL-2 2.5 ng/mL) [26] = test: as above; conditions: 72 h
NK-92 (IL-2 2.5 ng/mL) [27] = test: as above; conditions: 72 h
[28] = tested on: normal primary NK cells, pool 1 (3 donors) (IL-2 2.5 ng/mL); test: as above; conditions: 72 h

C[C@H]1C[C@@H]2[C@H]([C@@H](O)C[C@@]3(C)[C@H]2CC[C@]3(O)C(=O)CO)[C@@]2(C)C=CC(=O)C=C12 [Methylprednisolone] (max concentration tested 10000 nM)
percent inhibition of viability [%]
Conditions | 1 nM | 10 nM | 100 nM | 1000 nM | 10000 nM
DERL-7 (IL-2 2.5 ng/mL) [12] | -1.31 | 19 | 94 | 100 | 101
IMC-1 (IL-2 20 ng/mL) [10] | -4.86 | -2.72 | -15.2 | -4.89 | -2.93
KAI3 (IL-2 2.5 ng/mL) [5] | -8.86 | -6.63 | -0.28 | 7.95 | 30.7
KHYG-1 (IL-2 2.5 ng/mL) [4] | -4.65 | 5.05 | 18.2 | 46 | 55.1
NK-92 (IL-2 2.5 ng/mL) [14] | -14.6 | -20.1 | -27.4 | -10.6 | 3.24
NK-YS (IL-2 2.5 ng/mL) [3] | -6.22 | -4.6 | 0.39 | 6.37 | 16.5
NKL (IL-2 2.5 ng/mL) [8] | 4.02 | 31.1 | 57 | 63.6 | 67.6
SNK-6 (IL-2 2.5 ng/mL) [6] | 7.96 | -13.3 | -4.6 | -6.43 | 15.4
YT (IL-2 2.5 ng/mL) [13] | -5.71 | 10.2 | 19.4 | 43.3 | 53.1
[1] | -4.84 | 16.6 | 51.6 | 67.2 | 74.4
[7] | -1.18 | 47.6 | 75.4 | 84.2 | 87.2
[9] | -7.17 | 8.16 | 33.7 | 46.2 | 58.4
[11] | -6.66 | 20.1 | 52.2 | 69.9 | 76.8
[15] | 6.03 | 24 | 56.2 | 75.3 | 81.7

Conditions | drug sensitivity score
DERL-7 (IL-2 2.5 ng/mL) [25] | 32.1
IMC-1 (IL-2 20 ng/mL) [23] | 0
KAI3 (IL-2 2.5 ng/mL) [18] | 2.54
KHYG-1 (IL-2 2.5 ng/mL) [17] | 10.5
NK-92 (IL-2 2.5 ng/mL) [27] | 0
NK-YS (IL-2 2.5 ng/mL) [16] | 0.89
NKL (IL-2 2.5 ng/mL) [21] | 23
SNK-6 (IL-2 2.5 ng/mL) [19] | 0.13
YT (IL-2 2.5 ng/mL) [26] | 10.3
[2] | 20.6
[20] | 31.7
[22] | 13.5
[24] | 21.3
[28] | 23.3

CN(c1ccccc1CNc1nc(Nc2ccc3c(c2)CC(=O)N3)ncc1C(F)(F)F)S(C)(=O)=O (max concentration tested 10000 nM)
percent inhibition of viability [%]
Conditions | 1 nM | 10 nM | 100 nM | 1000 nM | 10000 nM
DERL-7 (IL-2 2.5 ng/mL) [12] | -11.5 | 1.19 | -8.22 | 78.2 | 101
IMC-1 (IL-2 20 ng/mL) [10] | -8.05 | -9.43 | -5.71 | 42.5 | 100
KAI3 (IL-2 2.5 ng/mL) [5] | 2.15 | -4.73 | -2.81 | 30.6 | 106
KHYG-1 (IL-2 2.5 ng/mL) [4] | 3.44 | -1.15 | 1.69 | 81.4 | 109
NK-92 (IL-2 2.5 ng/mL) [14] | -16.5 | -24 | -36 | 20.4 | 108
NK-YS (IL-2 2.5 ng/mL) [3] | -1.08 | -5.55 | -3.8 | 48.1 | 106
NKL (IL-2 2.5 ng/mL) [8] | -5.61 | -8.98 | 4.68 | 65.6 | 109
SNK-6 (IL-2 2.5 ng/mL) [6] | -0.86 | -15.1 | -15.1 | 15.3 | 64.4
YT (IL-2 2.5 ng/mL) [13] | 0.31 | -4.2 | -5.3 | 27.2 | 109
[1] | -7.88 | -4.41 | -2.88 | 58 | 101
[7] | -21.8 | -18.3 | -4.27 | -35.7 | 91.4
[9] | -4.56 | -2.11 | -3.97 | 15.6 | 100
[11] | -24.5 | -16.5 | -8.34 | 20.1 | 98.1
[15] | 4.57 | -5.98 | 14.5 | 42.7 | 99.6

Conditions | drug sensitivity score
DERL-7 (IL-2 2.5 ng/mL) [25] | 14.4
IMC-1 (IL-2 20 ng/mL) [23] | 11.1
KAI3 (IL-2 2.5 ng/mL) [18] | 9.97
KHYG-1 (IL-2 2.5 ng/mL) [17] | 14.9
NK-92 (IL-2 2.5 ng/mL) [27] | 8.85
NK-YS (IL-2 2.5 ng/mL) [16] | 11.6
NKL (IL-2 2.5 ng/mL) [21] | 13.3
SNK-6 (IL-2 2.5 ng/mL) [19] | 5.93
YT (IL-2 2.5 ng/mL) [26] | 9.64
[2] | 12.4
[20] | 3.72
[22] | 8.12
[24] | 8.64
[28] | 10.5

COc1ccc(C[C@H](NC(=O)[C@H](C)NC(=O)CN2CCOCC2)C(=O)N[C@@H](Cc2ccccc2)C(=O)C2(C)CO2)cc1 (stereo in doubt) [ONX-0914] (max concentration tested 10000 nM)
percent inhibition of viability [%]
Conditions | 1 nM | 10 nM | 100 nM | 1000 nM | 10000 nM
DERL-7 (IL-2 2.5 ng/mL) [12] | 6.02 | 28.7 | 92.2 | 101 | 101
IMC-1 (IL-2 20 ng/mL) [10] | 2.14 | -0.04 | 24.1 | 100 | 101
KAI3 (IL-2 2.5 ng/mL) [5] | 12.7 | 28.5 | 93.7 | 106 | 102
KHYG-1 (IL-2 2.5 ng/mL) [4] | -0.77 | 1.13 | 29.1 | 104 | 101
NK-92 (IL-2 2.5 ng/mL) [14] | -8.67 | 15.8 | 93.1 | 106 | 102
NK-YS (IL-2 2.5 ng/mL) [3] | 13.1 | 15.9 | 75 | 105 | 102
NKL (IL-2 2.5 ng/mL) [8] | 10.8 | 1.76 | 103 | 106 | 102
SNK-6 (IL-2 2.5 ng/mL) [6] | -1.52 | 17.8 | 58.1 | 101 | 101
YT (IL-2 2.5 ng/mL) [13] | -1.7 | 3.7 | 69.5 | 104 | 101
[1] | 6.48 | 5.84 | 57.1 | 101 | 101
[7] | -25.3 | 21.3 | 91 | 96.4 | 97.3
[9] | -6.21 | 2.14 | 73.6 | 99.9 | 100
[11] | -9.54 | 18.2 | 87.2 | 99.6 | 99.8
[15] | -4.25 | 8.47 | 92.5 | 100 | 100

Conditions | drug sensitivity score
DERL-7 (IL-2 2.5 ng/mL) [25] | 32.7
IMC-1 (IL-2 20 ng/mL) [23] | 21.7
KAI3 (IL-2 2.5 ng/mL) [18] | 32.9
KHYG-1 (IL-2 2.5 ng/mL) [17] | 22.3
NK-92 (IL-2 2.5 ng/mL) [27] | 31.6
NK-YS (IL-2 2.5 ng/mL) [16] | 28.6
NKL (IL-2 2.5 ng/mL) [21] | 30.9
SNK-6 (IL-2 2.5 ng/mL) [19] | 25.6
YT (IL-2 2.5 ng/mL) [26] | 26.3
[2] | 24.8
[20] | 31.9
[22] | 26.7
[24] | 30.7
[28] | 30.5
